Results as given in patent EP1780283A1, “Trophic conversion of obligate photographic algae through metabolic engineering” (MARTEK BIOSCIENCES CORPORATION, priority 2000, dated 2001).
Read-outs that look alike come from different tables or passages of the source.

Key:
[1] = test system: human Glut1 glucose transporter (Glut1, from human erythrocytes), expressed in P. tricornutum transformants Glut-13 and Glut-17; assay: Glucose uptake kinetics (D-14C-glucose) of glut1 containing P. tricornutum transformants; type: cell-based, Phaeodactylum tricornutum; details: cell line Glut-13; 5x10^-4 of Cytochalasin B (unit not given)
Nitzschia alba = assay: Antibiotic sensitivity of diatoms on solid media; type: cell-based
Experimental: (§1) The diatoms Phaeodactylum tricornutum, Cylindrotheca fusiformis, Cyclotella cryptica and Nitzschia alba were extensively tested for sensitivity to a series of antibiotics for which resistance genes are available, and the lowest concentrations which completely abrogate growth were determined for each antibiotic (Table C). […] These include antibiotics such as G418, Hygromycin, Kanamycin and Spectinomycin, which are routinely utilized for selection of other eukaryotic organisms.
(§2) Cells of each diatom species were plated on solid media at salinity equivalents of 25-100% I.O. media, with a gradient of antibiotic concentrations. After 2 weeks of illumination the growth of the cells was assessed and the concentration of antibiotic required for cell death was determined. (Table D). Table C. Effect of antibiotics on the growth of selected diatoms. Values represent the lowest concentration of the antibiotic per ml required for cell death or the highest concentration tested.

Cylindrotheca fusiformis = assay: Antibiotic sensitivity of diatoms on solid media; type: cell-based; details: for lowest concentration of antibiotic per ml required for cell death or the lowest concentration tested: reduced salinity
Experimental: as §1
(§3) The effective concentration range of the antibiotic in most cases was lowered by a factor of 10.
as §2
(§4) Table D. Effect of antibiotics on the growth of selected diatoms in media with reduced salinity. The relative percentage of salinity verses normal seawater of the medium is given in parentheses. Antibiotic levels are given as the lowest concentration of antibiotic per ml required for cell death or the lowest concentration tested.

Cyclotella cryptica = assay: Antibiotic sensitivity of diatoms on solid media; type: cell-based; details: for lowest concentration of antibiotic per ml required for cell death or the lowest concentration tested: reduced salinity, 10% of normal seawater
Experimental: as §1, §3, §2, §4

[2] = test system: Phaeodactylum tricornutum; assay: Antibiotic sensitivity of diatoms on solid media; type: cell-based; details: for lowest concentration of antibiotic per ml required for cell death or the lowest concentration tested: reduced salinity
Experimental: as §1, §3, §2, §4

[3] = N. alba, solid media, 100% I.O. media, 2 weeks of illumination
[4] = C. fusiformis, solid media, 100% I.O. media, 2 weeks of illumination
[5] = C. cryptica, solid media, 100% I.O. media, 2 weeks of illumination
[6] = P. tricornutum, solid media, 100% I.O. media, 2 weeks of illumination
[7] = C. fusiformis, 25% of normal seawater
[8] = C. fusiformis, 50% of normal seawater
[9] = P. tricornutum, 50% of normal seawater
[10] = P. tricornutum, 25% of normal seawater

Row | Compound | glucose uptake in the presence of Cytochalasin B [1] | lowest concentration of the antibiotic per ml required for cell death or the highest concentration tested (Nitzschia alba; [3]) [mg mg per ml] | lowest concentration of the antibiotic per ml required for cell death or the highest concentration tested (Cylindrotheca fusiformis; [4]) [mg mg per ml] | lowest concentration of the antibiotic per ml required for cell death or the highest concentration tested (Cyclotella cryptica; [5]) [mg mg per ml] | lowest concentration of the antibiotic per ml required for cell death or the highest concentration tested [2, 6] [mg mg per ml] | lowest concentration of the antibiotic per ml required for cell death or the highest concentration tested (Nitzschia alba) [mg] | lowest concentration of the antibiotic per ml required for cell death or the highest concentration tested (Cylindrotheca fusiformis) [mg] | lowest concentration of the antibiotic per ml required for cell death or the highest concentration tested (Cyclotella cryptica) [mg] | lowest concentration of the antibiotic per ml required for cell death or the highest concentration tested [2] [mg] | lowest concentration of antibiotic per ml required for cell death or the lowest concentration tested (Cylindrotheca fusiformis; [7]) | lowest concentration of antibiotic per ml required for cell death or the lowest concentration tested (Cylindrotheca fusiformis; [8]) | lowest concentration of antibiotic per ml required for cell death or the lowest concentration tested (Cyclotella cryptica; C. cryptica) | lowest concentration of antibiotic per ml required for cell death or the lowest concentration tested [2, 9] | lowest concentration of antibiotic per ml required for cell death or the lowest concentration tested [2, 10]
1 | C=C1C(C)C2C(Cc3ccccc3)NC(=O)C23OC(=O)C=CC(O)CCCC(C)CC=CC3C1O (centres unmarked) [Cytochalasin B] | reduced to an undetectable level |  |  |  |  |  |  |  |  |  |  |  |  | 
2 | CN[C@@H]1[C@@H](O)[C@@H](O[C@@H]2[C@@H](O)[C@H](O[C@H]3O[C@H]([C@@H](C)O)[C@@H](O)[C@H](O)[C@H]3N)[C@@H](N)C[C@H]2N)OC[C@]1(C)O [G418] |  | > 500 | > 1 | 250 | > 1 |  |  |  |  |  |  |  |  | 
3 | CN[C@@H]1C[C@H](N)[C@@H](O)[C@H](O[C@H]2O[C@H](CO)[C@H](O)[C@@H]3O[C@@]4(O[C@@H]23)O[C@H]([C@H](N)CO)[C@H](O)[C@H](O)[C@H]4O)[C@H]1O [Hygromycin] |  |  |  |  |  | > 500 | 500 | > 500 | > 1 |  |  |  |  | 
4 | Cc1c(N)nc([C@H](CC(N)=O)NC[C@H](N)C(N)=O)nc1C(=O)N[C@H](C(=O)N[C@H](C)[C@@H](O)[C@H](C)C(=O)N[C@H](C(=O)NCCC1=N[C@@H](c2nc(C(=O)NCCCCN=C(N)N)cs2)CS1)[C@@H](C)O)[C@@H](O[C@@H]1O[C@@H](CO)[C@@H](O)[C@H](O)[C@@H]1O[C@H]1O[C@H](CO)[C@@H](O)[C@H](OC(N)=O)[C@@H]1O)c1cnc[nH]1 [Zeocin] |  | > 250 | > 250 | 250 | 50 |  |  |  |  | 100 mg (25%) mg per ml | 250 mg (50%) mg per ml | < 5 mg (10%) mg per ml | 25 mg (50%) mg per ml | 
5 | Bleomycin |  |  | > 50 |  | > 50 |  |  |  |  |  |  |  |  | 
6 | Neomycin |  | > 1 | > 1 | > 1 | > 1 |  |  |  |  |  |  |  |  | 
7 | Nourseothricin |  | > 250 | > 250 | >250 | 250 |  |  |  |  | < 10 mg (25%) mg per ml | 50 mg (50%) mg per ml | < 5 mg (10%) mg per ml | 25 mg (50%) mg per ml | 10 mg (25%) mg per ml
8 | Phleomycin |  | > 50 | 25 | 25 | 5 |  |  |  |  | < 5 mg (25%) mg per ml | 25 mg (50%) mg per ml | < 5 mg (10%) mg per ml | < 5 mg (50%) mg per ml | < 5 mg (25%) mg per ml
